According to patent publication US12390437B2, “Itaconic acid derivatives and uses thereof intreating an inflammatory disease or a disease associated with an undesirable immune response” (Sitryx Therapeutics Limited, priority 2019, dated 2025):
Where a name gives a salt, the structure may show the parent alone.

Experiments:
[1] = system: IL-6 cytokine output from THP-1s; assay: THP-1 AlphaLISA IL-6 cytokine assay; type: cell-based, human; settings: Homo sapiens; PMA-differentiated THP-1 cells, LPS 24 hr then Nigericin 1 hour
In short: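 AlphaLISA read-out of cytokine released into supernatants of differentiated THP-1 cells. Cells were PMA-treated for 72 h, exposed to compound for 30 min, stimulated with LPS for 24 h, then given nigericin for 1 h before harvest. IC50 values come from normalised concentration-response curves.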

[2] = system: hepatocytes; assay: Hepatocyte stability assay (human); type: in vitro ADME; settings: 10 μM compound, 0.5×10^6 cells/mL, 60 minutes
From the text: (§1) Defrosted cryo-preserved hepatocytes (viability >70%) are used to determine the metabolic stability of a compound via calculation of intrinsic clearance (Clint; a measure of the removal of a compound from the liver in the absence of blood flow and cell binding). Clearance data are particularly important for in vitro work as they can be used in combination with in vivo data to predict the half-life and oral bioavailability of a drug.
(§2) The metabolic stability in hepatocytes assay involves a time-dependent reaction using both positive and negative controls. The cells must be pre-incubated at 37° C. then spiked with test compound (and positive control); samples taken at pre-determined time intervals are analysed to monitor the change in concentration of the initial drug compound over 60 minutes. A buffer incubation reaction (with no hepatocytes present) acts as a negative control and two cocktail solutions, containing compounds with known high and low clearance values (verapamil/7-hydroxycoumarin and propranolol/diltiazem), act as positive controls. • 1. The assay is run with a cell concentration of 0.5×10^6 cells/mL in Leibovitz buffer. • 2. All compounds and controls are run in duplicate. • 3. Compound concentration is 10 μM. • 4. All compounds and controls are incubated with both cells and buffer to show turnover is due to hepatic metabolism. • 5. All wells on the incubation plate will have 326.7 μL of either cells or buffer added. • 6. Prior to assay, cell and buffer-only incubation plates are preincubated for 10 mins at 37° C. • 7. The assay is initiated by adding compounds, 3.3 μL of 1 mM in 10% DMSO-90% Buffer; final DMSO concentration is 0.1%. • 8. Samples are taken at regular timepoints (0, 5, 10, 20, 40, 60 min) until 60 mins. • 9. Sample volume is 40 μL and it is added to 160 μL of crash solvent (acetonitrile with internal standard) and stored on ice. • 10. At the end of the assay, the crash plates are centrifuged at 3500 rpm for 20 mins at 4° C. • 11. 80 μL of clear supernatant is removed and mixed with 80 μL of deionised water before being analysed by LC-MS/MS.
(§3) Raw LC-MS/MS data are exported to, and analysed in, Microsoft Excel for determination of intrinsic clearance. The percentage remaining of a compound is monitored using the peak area of the initial concentration as 100%. Intrinsic clearance and half-life values are calculated using a graph of the natural log of percentage remaining versus the time of reaction in minutes. Half-life (min) and intrinsic clearance (Clint in μL min^−1 10^−6 cells) values are calculated using the gradient of the graph (the elimination rate constant, k) and Equations 1 and 2.

[3] = Hepatocyte stability assay (human); type: in vitro ADME; settings: cryopreserved hepatocytes, 10 μM compound, 0.5×10^6 cells/mL, 60 minutes, read-out: T½
From the text: as §1, §2, §3

[4] = Mouse pharmacokinetic study, intravenous dosing; type: in vivo; settings: 10 mg/kg i.v.; for concentration at 0.05 h / concentration at 0.133 h / concentration at 0.25 h / concentration at 0.5 h / concentration at 1 h / concentration at 2 h / concentration at 4 h / concentration at 6 h / concentration at 8 h: male, C57BL/6, mouse, iv, plasma, read-out: Parent compound concentration following intravenous administration
In short: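 Male C57BL/6 mice (6-8 weeks, fed ad libitum) received 10 mg/kg IV by tail vein in 10% DMSO/HP-β-CD vehicle, or 100 mg/kg by oral gavage in DMSO/HPMC/Tween 80. Facial-vein blood was taken at 9 time points (N=3 each) into K2EDTA; plasma concentrations were measured by LC-MS/MS.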

[5] = system: hepatocytes; assay: Hepatocyte stability assay (mouse); type: in vitro ADME; settings: 10 μM compound, 0.5×10^6 cells/mL, 60 minutes
From the text: as §1, §2, §3

[6] = Hepatocyte stability assay (mouse); type: in vitro ADME; settings: cryopreserved hepatocytes, 10 μM compound, 0.5×10^6 cells/mL, 60 minutes, read-out: T½
From the text: as §1, §2, §3

Compound | IC50 [1] [µM] | CIint (μL min^−1 10^−6 cells) [2] [μL min^−1 10^−6 cells] | half-life at 10 μM [3] [min] | concentration at 0.05 h [4] [ng/mL] | concentration at 0.133 h [4] [ng/mL] | concentration at 0.25 h [4] [ng/mL] | concentration at 0.5 h [4] [ng/mL] | concentration at 1 h [4] [ng/mL] | concentration at 2 h [4] [ng/mL] | concentration at 4 h [4] [ng/mL] | concentration at 6 h [4] [ng/mL] | concentration at 8 h [4] [ng/mL] | CIint (μL min^−1 10^−6 cells) [5] [μL min^−1 10^−6 cells] | half-life at 10 μM [6] [min] | Quantifiability in plasma following intravenous dosing ([4]; mouse)
C=C(CC(=O)OCCCOc1ccccc1)C(=O)OCCC(=O)O [Example 86, 3-((2-methylene-4-oxo-4-(3-phenoxypropoxy)butanoyl)oxy)propanoic acid] | 15.7 | 44 | 31 |  |  |  |  |  |  |  |  |  |  |  | 
C=C(CC(=O)OC1CCCCC1)C(=O)OCc1nnn[nH]1 [Example 125, 1-((2H-tetrazol-5-yl)methyl) 4-cyclohexyl 2-methylenesuccinate] |  | 9 | 198 | 11900 | 3870 | 1070 | 346 | 38 | 3 | < 0.8 | < 0.8 | < 0.8 | 101 | 16 | 
C=C(CC(=O)O[C@@H](C)CCCCCC)C(=O)OCCc1nnn[nH]1 [Example 129, (S)-1-(2-(1H-tetrazol-5-yl)ethyl) 4-octan-2-yl 2-methylenesuccinate] |  | 55 | 108 | 2920 | 872 | 309 | 96 | 7.7 | < 1.6 | < 1.6 | < 1.6 | < 1.6 | 378 | 4 | 
C=C(CC(=O)OC1CCCCCCC1)C(=O)OC(C)c1nnn[nH]1 (stereo not drawn) [Example 133, 1-(1-(1H-tetrazol-5-yl)ethyl) 4-cyclooctyl 2-methylenesuccinate] |  | 48 | 30 | 11000 | 4570 | 1950 | 315 | 33 | < 8 | < 8 | < 8 | < 8 | 107 | 14 | 
C=C(CC(=O)OC1CCCCCCC1)C(=O)OCc1nnn[nH]1 [Example 134, 1-((1H-tetrazol-5-yl)methyl) 4-cyclooctyl 2-methylenesuccinate] |  | 27 | 53 | 31600 | 7760 | 2890 | 4300 | 74 | 12 | 11 | 1.4 | 1.7 | 256 | 7 | 
C=C(CC(=O)O[C@H](C)CCCCCC)C(=O)OCc1nn[nH]n1 [Example 161, (R)-1-((2H-tetrazol-5-yl)methyl) 4-(octan-2-yl) 2-methylenesuccinate] |  | 55 | 22 | 8890 | 2380 | 846 | 343 | 90 | 5.1 | < 4 | < 4 | < 4 | >460 | < 3 | 
C=C(CC(=O)O[C@H](CC)CCCCC)C(=O)OCC(=O)O [Example 178, (R)-2-(2-methylene-4-(octan-3-yloxy)-4-oxobutanoyloxy)acetic acid] |  |  |  | 33400 | 15500 | 5680 | 2850 | 594 | 61 | 8.2 | < 4 | < 4 |  |  | 
COC(=O)/C=C/C(=O)OC [dimethyl fumarate, reference compound] | 9.3 |  |  |  |  |  |  |  |  |  |  |  |  |  | 
C=C(CC(=O)OC)C(=O)OC [dimethyl itaconate, reference compound] | 100 |  |  | 874 | < 24 | < 24 | < 24 | < 24 | < 24 | < 24 | < 24 | < 24 |  |  | only quantifiable at one timepoint

Second part, the compound after the results:

IC50 [1] [µM] | CIint (μL min^−1 10^−6 cells) [2] [μL min^−1 10^−6 cells] | half-life at 10 μM [3] [min] | concentration at 0.05 h [4] [ng/mL] | concentration at 0.133 h [4] [ng/mL] | concentration at 0.25 h [4] [ng/mL] | concentration at 0.5 h [4] [ng/mL] | concentration at 1 h [4] [ng/mL] | concentration at 2 h [4] [ng/mL] | concentration at 4 h [4] [ng/mL] | concentration at 6 h [4] [ng/mL] | concentration at 8 h [4] [ng/mL] | CIint (μL min^−1 10^−6 cells) [5] [μL min^−1 10^−6 cells] | half-life at 10 μM [6] [min] | Quantifiability in plasma following intravenous dosing ([4]; mouse) | Compound
6 |  |  |  |  |  |  |  |  |  |  |  |  |  |  | C=C(CC(=O)OCCCCCCCC)C(=O)OCCC#N [Example 1, 1-(2-cyanoethyl) 4-octyl 2-methylenesuccinate]
2.9 |  |  |  |  |  |  |  |  |  |  |  |  |  |  | C=C(CC(=O)OCCCCCCCC)C(=O)OCCS(C)(=O)=O [Example 2, 1-(2-(methylsulfonyl)ethyl) 4-octyl 2-methylenesuccinate]
56.2 |  |  |  |  |  |  |  |  |  |  |  |  |  |  | C=C(CC(=O)OCCCCCCCC)C(=O)OCCC(F)(F)F [Example 3, 4-octyl 1-(3,3,3-trifluoropropyl) 2-methylenesuccinate]
3.6 |  |  |  |  |  |  |  |  |  |  |  |  |  |  | C=C(CC(=O)OCCCCCCCC)C(=O)OC1COC1 [Example 4, 4-octyl 1-(oxetan-3-yl) 2-methylenesuccinate]
2.2 |  |  |  |  |  |  |  |  |  |  |  |  |  |  | C=C(CC(=O)OCCCCCCCC)C(=O)OCCN1C(=O)CCC1=O [Example 9, 1-(2-(2,5-dioxopyrrolidin-1-yl)ethyl) 4-octyl 2-methylenesuccinate]
 | 16 | 85 | 18000 | 6070 | 2440 | 550 | 42 | 1.9 | 1.4 | < 0.8 | < 0.8 | 60 | 23 |  | C=C(CC(=O)OCCCCCC)C(=O)OCC(=O)O [Example 94, 2-((4-(hexyloxy)-2-methylene-4-oxobutanoyl)oxy)acetic acid]
 | 65 | 25 | 63500 | 40100 | 36200 | 23500 | 13000 | 3540 | 1510 | 424 | 154 | 255 | 13 |  | C=C(CC(=O)O[C@H](C)CCCCCC)C(=O)OCC(=O)O [Example 112, (R)-2-((2-methylene-4-(octan-2-yloxy)-4-oxobutanoyl)oxy)acetic acid]
